Laboratory results taken from ChEMBL document CHEMBL1153512, “Anti-HBV and cytotoxic activities of pyranocoumarin derivatives” (Bioorg Med Chem, 2009).
In brackets after ≈: the same amount, converted by molar mass.

Columns and labels:
Hepatitis B virus [1] = assay: Antiviral activity against Hepatitis B virus infected in human […] cells assessed as suppression of viral surface antigen production after 48 hrs by enzyme immunoassay; assay type: functional, organism-based
KB = assay: Cytotoxicity against human KB cells after 3 days by sulforhodamine B assay; assay type: functional, cell-based; details: 72 h
MCF7 = assay: Cytotoxicity against human MCF7 cells after 3 days by sulforhodamine B assay; assay type: functional, cell-based; details: MCF7, 72 h
[2] = Cytotoxicity against human KBVIN cells after 3 days by sulforhodamine B assay; assay type: functional, cell-based; details: 72 h
A549 = assay: Cytotoxicity against human A549 cells after 3 days by sulforhodamine B assay; assay type: functional, cell-based; details: A549, 72 h
Hepatitis B virus [3] = assay: Antiviral activity against Hepatitis B virus infected in human […] cells assessed as suppression of viral surface antigen production upto 15 uM after 48 hrs by enzyme immunoassay; assay type: functional, organism-based

CCC(C)(C)c1c2c(c(O)c3ccc(=O)oc13)C(=O)CC(C)(C)O2
EC50 (Hepatitis B virus [1]): 1.14 µM
EC50 (KB): 19.5 µg/mL (≈ 59 µM)
EC50 (MCF7): > 20 µg/mL
EC50 [2]: 2.87 µg/mL (≈ 8.69 µM)
EC50 (A549): 19.7 µg/mL (≈ 59.7 µM)

CCC(C)(C)c1cc2c(OC)c3c(c(C(C)(C)CC)c2oc1=O)OC(C)(C)CC3
EC50 (Hepatitis B virus [1]): 6.6 µM

C=CC(C)(C)c1cc2c(OC)c3c(c(C(C)(C)C=C)c2oc1=O)OC(C)(C)C=C3
EC50 (Hepatitis B virus [3]): Not Active

COc1c2c(c(C(C)(C)C3CO3)c3oc(=O)ccc13)OC(C)(C)CC2=O (stereo not given)
EC50 (Hepatitis B virus [3]): Not Active

CCC(C)(C)c1c2c(c(OC)c3ccc(=O)oc13)CCC(C)(C)O2
EC50 (Hepatitis B virus [1]): 1.63 µM
EC50 (KB): 11.5 µg/mL (≈ 34.9 µM)
EC50 (MCF7): > 20 µg/mL
EC50 [2]: 10.2 µg/mL (≈ 30.7 µM)
EC50 (A549): > 20 µg/mL

CC1(C)CC(=O)c2c(c(C(C)(C)C3CO3)c3oc(=O)ccc3c2O)O1 (stereo not given)
EC50 (KB): > 20 µg/mL
EC50 (MCF7): > 20 µg/mL
EC50 [2]: 2.71 µg/mL (≈ 7.87 µM)
EC50 (Hepatitis B virus [3]): Not Active
EC50 (A549): > 20 µg/mL

COc1c2c(c(C(C)(C)C3CO3)c3oc(=O)c(C(C)(C)C4CO4)cc13)OC(C)(C)C1OC21 (stereo not given)
EC50 (Hepatitis B virus [3]): Not Active

CCC(C)(C)c1cc2c(O)c3c(c(C(C)(C)CC)c2oc1=O)OC(C)(C)CC3
EC50 (KB): 8.21 µg/mL (≈ 21.2 µM)
EC50 (MCF7): 17.7 µg/mL (≈ 45.9 µM)
EC50 [2]: 7.73 µg/mL (≈ 20 µM)
EC50 (Hepatitis B virus [3]): Not Active
EC50 (A549): 12.2 µg/mL (≈ 31.6 µM)

C=CC(C)(C)c1cc2c(OC)c3c(c(C(C)(C)C=C)c2oc1=O)OC(C)(C)C1OC31 (stereo not given)
EC50 (Hepatitis B virus [1]): 4.56 µM
EC50 (KB): 6.5 µg/mL (≈ 15.8 µM)
EC50 (MCF7): 11.4 µg/mL (≈ 27.8 µM)
EC50 [2]: 6.12 µg/mL (≈ 14.9 µM)
EC50 (A549): 11.8 µg/mL (≈ 28.7 µM)

COc1c2c(cc3oc(=O)ccc13)OC(C)(C)CC2
EC50 (Hepatitis B virus [3]): Not Active

COc1c2c(c(C(C)(C)C3CO3)c3oc(=O)ccc13)OC(C)(C)C1OC21 (stereo not given)
EC50 (Hepatitis B virus [3]): Not Active

C=CC(C)(C)c1c2c(c(OC)c3ccc(=O)oc13)C1OC1C(C)(C)O2 (stereo not given)
EC50 (Hepatitis B virus [1]): 5.5 µM

C=CC(C)(C)c1c2c(c(OC)c3ccc(=O)oc13)C(=O)CC(C)(C)O2
EC50 (Hepatitis B virus [1]): 11.2 µM

COc1c2c(cc3oc(=O)ccc13)OC(C)(C)C1OC21 (stereo not given)
EC50 (Hepatitis B virus [3]): Not Active

CCC(C)(C)c1c2c(c(O)c3ccc(=O)oc13)CCC(C)(C)O2
EC50 (Hepatitis B virus [1]): 1.34 µM
EC50 (KB): 9.25 µg/mL (≈ 29.2 µM)
EC50 (MCF7): 16.3 µg/mL (≈ 51.6 µM)
EC50 [2]: 9.11 µg/mL (≈ 28.8 µM)
EC50 (A549): 8.84 µg/mL (≈ 27.9 µM)

CCC(C)(C)c1c2c(c(OC)c3ccc(=O)oc13)C(=O)CC(C)(C)O2
EC50 (Hepatitis B virus [1]): 5.35 µM
EC50 (KB): > 20 µg/mL
EC50 (MCF7): > 20 µg/mL
EC50 [2]: 13 µg/mL (≈ 37.9 µM)
EC50 (A549): > 20 µg/mL

C=CC(C)(C)c1cc2c(O)c3c(c(C(C)(C)C=C)c2oc1=O)OC(C)(C)C=C3 [CLAUSARIN]
EC50 (KB): 1.61 µg/mL (≈ 4.23 µM)
EC50 (MCF7): 7.96 µg/mL (≈ 20.9 µM)
EC50 [2]: 1.59 µg/mL (≈ 4.18 µM)
EC50 (Hepatitis B virus [3]): Not Active
EC50 (A549): 2.98 µg/mL (≈ 7.83 µM)

C=CC(C)(C)c1c2c(c(OC)c3ccc(=O)oc13)C=CC(C)(C)O2 [DENTATIN]
EC50 (Hepatitis B virus [1]): 1.64 µM
EC50 (KB): 13.3 µg/mL (≈ 40.6 µM)
EC50 (MCF7): > 20 µg/mL
EC50 [2]: 14.7 µg/mL (≈ 45.1 µM)
EC50 (A549): > 20 µg/mL

C=CC(C)(C)c1c2c(c(O)c3ccc(=O)oc13)C=CC(C)(C)O2 [NORDENTATIN]
EC50 (Hepatitis B virus [1]): 6.38 µM
EC50 (KB): 9.63 µg/mL (≈ 30.8 µM)
EC50 (MCF7): 17.3 µg/mL (≈ 55.4 µM)
EC50 [2]: 9.96 µg/mL (≈ 31.9 µM)
EC50 (A549): 8.7 µg/mL (≈ 27.9 µM)

COc1c2c(cc3oc(=O)ccc13)OC(C)(C)C=C2 [XANTHOXYLETIN]
EC50 (Hepatitis B virus [3]): Not Active
